# Laboratory results published in ChEMBL document CHEMBL1126235, “Benzothiadiazine dioxides: A new class of potent angiotensin-II (AT1) receptor antagonists” (Bioorg Med Chem Lett, 1992).
# Tests used:
# [1] = target: T1, Angiotensin II receptor (AT-1) type-1 (Rattus norvegicus, UniProt P29089+P25095); test: Binding against Angiotensin II receptor in a radioligand binding assay using [125I]-Sar1-Ile8 angiotensin-II as radioligand in rat adrenal cortical membranes; assay type: cell membranes
# T1 sequence (P29089 whole entry): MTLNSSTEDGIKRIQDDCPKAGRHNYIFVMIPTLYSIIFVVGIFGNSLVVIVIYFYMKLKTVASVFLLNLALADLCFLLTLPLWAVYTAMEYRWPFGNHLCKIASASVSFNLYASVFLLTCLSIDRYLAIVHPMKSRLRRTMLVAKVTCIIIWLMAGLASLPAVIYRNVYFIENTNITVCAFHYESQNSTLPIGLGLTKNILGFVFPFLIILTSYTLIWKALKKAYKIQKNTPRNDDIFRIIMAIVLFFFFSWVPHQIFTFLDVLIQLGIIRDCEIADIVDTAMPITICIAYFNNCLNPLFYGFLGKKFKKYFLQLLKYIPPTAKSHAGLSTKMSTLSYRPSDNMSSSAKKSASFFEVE
# T1 sequence (P25095 whole entry): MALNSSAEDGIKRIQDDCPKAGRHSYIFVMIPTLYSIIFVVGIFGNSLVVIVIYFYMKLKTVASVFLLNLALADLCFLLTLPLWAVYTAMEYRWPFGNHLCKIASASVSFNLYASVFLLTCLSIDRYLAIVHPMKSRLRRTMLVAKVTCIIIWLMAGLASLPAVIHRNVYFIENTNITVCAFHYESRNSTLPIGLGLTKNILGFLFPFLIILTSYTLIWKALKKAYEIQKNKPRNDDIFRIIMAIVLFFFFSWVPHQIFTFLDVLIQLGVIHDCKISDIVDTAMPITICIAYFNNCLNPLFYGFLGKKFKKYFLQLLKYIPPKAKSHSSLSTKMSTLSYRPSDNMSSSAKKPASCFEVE
# Oryctolagus cuniculus = species: Oryctolagus cuniculus; test: Compound was tested for functional antagonism of angiotensin-II induced contraction in isolated rabbit aorta
SMILES,Ki [1] [nM],Kb (Oryctolagus cuniculus) [nM]
CCSC1=NS(=O)(=O)c2cc(C)cnc2N1Cc1ccc(-c2ccccc2-c2nn[nH]n2)cc1,0.8,0.6
CCCSC1=NS(=O)(=O)c2cc(C)cnc2N1Cc1ccc(-c2ccccc2-c2nn[nH]n2)cc1,0.6,11
CCCSC1=Nc2ccccc2S(=O)(=O)N1Cc1ccc(-c2ccccc2-c2nn[nH]n2)cc1,57,640
CCCCC1=NS(=O)(=O)c2ccccc2N1Cc1ccc(-c2ccccc2C(=O)O)cc1,550,130
CCCCC1=Nc2ccccc2S(=O)(=O)N1Cc1ccc(-c2ccccc2C(=O)O)cc1,230,160
CCCSC1=NS(=O)(=O)c2ccc(C(=O)O)cc2N1Cc1ccc(-c2ccccc2-c2nn[nH]n2)cc1,8.5,0.08
CCCSC1=NS(=O)(=O)c2ccccc2N1Cc1ccc(-c2ccccc2C(=O)O)cc1,180,20
CCCSC1=Nc2ccccc2S(=O)(=O)N1Cc1ccc(-c2ccccc2C(=O)O)cc1,4900,1200
CCCSC1=NS(=O)(=O)c2ccccc2N1Cc1ccc(-c2ccccc2-c2nn[nH]n2)cc1,4.8,93
CCCCc1nc(Cl)c(CO)n1Cc1ccc(-c2ccccc2-c2nnn[nH]2)cc1 [LOSARTAN],–,2.6
